Several values for one entry are separate records, joined by “and”; a condition that tells them apart may be missing. Equal values may be shown once. Where a SMILES comes first, the peptide text is derived from it. Bridges are numbered along the chain shown (N, C = ends). [ ]: non-standard residue; d: D form. The star is where a group is joined. X1 = CC(=O)O[C@@]12CO[C@@H]1C[C@H](O)[C@@]1(C)C(=O)[C@H](O)C3=C(C)[C@@H](OC(=O)[C@H](OC(=O)CCNC(=O)C4CCC(CN5C(=O)CC(*)C5=O)CC4)[C@@H](NC(=O)OC(C)(C)C)c4ccccc4)C[C@@](O)([C@@H](OC(=O)c4ccccc4)[C@H]21)C3(C)C; Ahx = NCCCCCC(=O)O
Key:
[1] = test system: RWPE-1, PC3, LNCap, Du-145 cell lines; test: MTS cell viability, range over four cell lines; assay type: cell-based, human; conditions: 5 µM, 72 h incubation
Description: (§1) Human epithelial prostate cell line (RWPE-1, ATCC No. CRL-11610), human prostate cancer cell line (Human prostate carcinoma DU-145, ATCC No. HTB-81), human adenocarcinoma PC3, ATCC No. CRL-1435), androgen-sensitive human prostate adenocarcinoma cells (LNCaP, ATCC No. CRL-1740), and castration-resistant LNCaP-derived C4-2 (ATCC No. CRL-1595) were purchased from American Type Culture Collection (ATCC), Manassas, VA, USA. All the media, serum, and antibiotics were bought from American Type Culture Collection (ATCC) (Manassas, VA, USA) and Sigma life-science (St. Louis, MO, USA). Keratinocytes SFM (1×) with EGF + BPE was bought from Gibco life technologies (Thermo Fisher Scientific), Gaithersburg, MD, USA. CellTiter 96 was bought from Promega, Madison, WI, USA. Dithiothreitol (DTT) was bought from Thermo Fisher scientific, Carlsbad, CA, USA, and TGF-β was bought from Abcam, Boston, MA, USA.
(§2) Cell-proliferation assay using MTS reagent was conducted against five cell lines (RWPE-1, PC3, DU-145, LNCaP, and, C4-2). Cells were seeded into 96-well plates (5 × 10^3 cells for all the cells) and incubated with 100 µL of complete medium (RPMI-1640 for RWPE-1, DU-145, LNCaP, and C4-2; DMEM for PC3) overnight at 37 °C with 5% CO2. Various concentrations (0, 0.06, 0.6, 6, 60, 600 μM) of the peptide solution (20 μL) were added to cells to yield the final concentrations of peptide (0, 0.01, 0.1, 1, 10, 100 μM). The cells were kept in an incubator (37 °C, 5% CO2) for 24, 48, or 72 h accordingly for different treatment time responses. […] The absorbance was obtained at 490 nm using SpectraMax M2 microplate reader to detect the formazan product. […] The percentage of cell viability was calculated by [(OD value of cells treated with the test mixture of compounds) − (OD value of culture medium)] / [(OD value of control cells) − (OD value of culture medium)] × 100%. […] Cell viability was determined by measuring the absorbance at 490 nm using SpectraMax M2 microplate spectrophotometer, as mentioned above.

[2] = test system: C4-2 cells with TGF-β treatment (EDB-FN overexpression); test: MTS cell viability of C4-2 cells treated with TGF-β to overexpress EDB-FN; assay type: cell-based, human; conditions: C4-2, TGF-β 10 ng/mL for 3 days; for decrease in cell viability in TGF-β treated cells as compared to untreated cells: after 72 h
Experimental: Cell-proliferation assay using MTS reagent was conducted against five cell lines (RWPE-1, PC3, DU-145, LNCaP, and, C4-2). Cells were seeded into 96-well plates (5 × 10^3 cells for all the cells) and incubated with 100 µL of complete medium (RPMI-1640 for RWPE-1, DU-145, LNCaP, and C4-2; DMEM for PC3) overnight at 37 °C with 5% CO2. Various concentrations (0, 0.06, 0.6, 6, 60, 600 μM) of the peptide solution (20 μL) were added to cells to yield the final concentrations of peptide (0, 0.01, 0.1, 1, 10, 100 μM). The cells were kept in an incubator (37 °C, 5% CO2) for 24, 48, or 72 h accordingly for different treatment time responses. Then, a CellTiter 96 aqueous solution (20 μL) was added to each well and incubated for 4 h under the same condition. The absorbance was obtained at 490 nm using SpectraMax M2 microplate reader to detect the formazan product. Wells containing cells in the absence of any peptide were used as a control. The percentage of cell viability was calculated by [(OD value of cells treated with the test mixture of compounds) − (OD value of culture medium)] / [(OD value of control cells) − (OD value of culture medium)] × 100%. […] Cell viability was determined by measuring the absorbance at 490 nm using SpectraMax M2 microplate spectrophotometer, as mentioned above.
To compare the cytotoxicity of compounds using treatment of TGF-β, the cells were culture, and 8000 cells (RPWE-1, PC3, DU-145, LNCap, and C4-2) were added in 120 μL per well with TGF-β treatment. Cells were exposed to TGF-β at 10 ng/mL for 3 days. Then cells were seeded in the corresponding medium (DMEM containing 10% FBS and 1% penicillin–streptomycin for DU-145, LNCaP, and PC3; keratinocyte containing 0.1% FBS without antibiotics for RWPE-1), 24 h prior to the experiment. Then, MTS assay was followed up, as mentioned in 3.5.1.

[3] = test system: PC3; test: MTS cell viability assay, PC3; assay type: cell-based, human; conditions: PC3, 2 h incubation, 0.01-100 µM in 5% DMSO
Description: as §1, §2

[4] = Stability under redox conditions with dithiothreitol (DTT); assay type: physicochemical; conditions: PBS pH 7.4, 12 equiv DTT (0.12 mM DTT, 0.010 mM peptide), analytical HPLC 214 nm, % remaining from AUC
Experimental: The stability of peptide–drug conjugate 13 was evaluated in the phosphate buffered saline (PBS). The pH of PBS was adjusted to 6.8, 7.0, 7.4 using HCl and NaOH as needed. In brief, 250 µL of 1 × PBS was mixed with 45 µL of 0.25 mM Dox-peptide conjugate 13. The mixture was incubated at 37 °C in a water bath covered with aluminum foil. An aliquot (40 µL) was removed at different time intervals, such as 4, 24, and 84 h and analyzed using analytical RP-HPLC at 490 nm. The percentage of the remained peptide was calculated using the area under the curve (AUC) by integrating the chromatogram in analytical HPLC. For evaluation of stability in DTT, a solution of DTT (0.120 mM) was prepared using PBS (pH 7.4). A solution of compounds (1, 8, and 13 at 1 mM) was prepared in PBS (pH = 7.4). A volume of 45 µL of the peptide was added to 2.250 mL of PBS in a UV-blocking glass vial. The glass vials were put under nitrogen and stirred using a small magnetic bead. A volume of DTT ([…], 12 equiv) was added to the solution, which was incubated with each peptide sample to obtain a working concentration of 0.12 mM DTT and 0.010 mM peptide. Aliquots of 200 µL were collected at different time intervals and analyzed using analytical HPLC vials (0 min was used as controls without DTT) after quenching the DTT with 10 µL of H2O (pH = 2). The aliquots were run on analytical HPLC with detection at 214 nm.

[5] = test system: C4-2; test: MTS cell viability assay, C4-2 without TGF-β; assay type: cell-based, human; conditions: C4-2 without TGF-β, 24–72 h
Description: as §1, §2

| SMILES | cell proliferation (cell viability), range over all four cell lines [1] | decrease in cell viability in TGF-β treated cells as compared to untreated cells [2] [%] | also measured |
| --- | --- | --- | --- |
| CC(=O)O[C@@]12CO[C@@H]1C[C@H](O)[C@@]1(C)C(=O)[C@H](O)C3=C(C)[C@@H](OC(=O)[C@H](O)[C@@H](NC(=O)OC(C)(C)C)c4ccccc4)C[C@@](O)([C@@H](OC(=O)c4ccccc4)[C@H]21)C3(C)C [Doce, docetaxel, reference compound] | 54–61% | 16 | – |
| COc1cccc2c1C(=O)c1c(O)c3c(c(O)c1C2=O)C[C@@](O)(C(=O)CO)C[C@@H]3O[C@H]1C[C@H](N)[C@H](O)[C@H](C)O1 [Dox, doxorubicin, reference compound] | 20–34% | – | toxicity at or below 10 µM [3]: no significant toxicity; effect of TGF-β treatment on cytotoxicity compared to TGF-β untreated cells [2]: no observed effect |
| CC(C)[C@@H]1NC(=O)[C@H]([C@@H](C)O)NC(=O)[C@@H](N)CCCCNC(=O)CC[C@@H](C(N)=O)NC(=O)[C@H](CC(=O)O)NC(=O)[C@H](C)NC(=O)[C@H](CO)NC(=O)[C@H]([C@@H](C)O)NC(=O)[C@H](CCCNC(=N)N)NC1=O [compound 8] (H-KTVRTSADE-NH2; lactam 1-9) | – | – | half-life / stability under redox conditions (DTT) [4]: > 8 h and 8 h |
| CC(=O)O[C@@]12CO[C@@H]1C[C@H](O)[C@@]1(C)C(=O)[C@H](O)C3=C(C)[C@@H](OC(=O)[C@H](OC(=O)CCNC(=O)C4CCC(CN5C(=O)CC(SC[C@H](N)C(=O)NCC(=O)N[C@@H](Cc6ccccc6)C(=O)N[C@@H](CC(C)C)C(=O)NCC(=O)NCCCCCC(=O)N[C@H]6CCCCNC(=O)CC[C@@H](C(N)=O)NC(=O)[C@H](CC(=O)O)NC(=O)[C@H](C)NC(=O)[C@H](CO)NC(=O)[C@H]([C@@H](C)O)NC(=O)[C@H](CCCNC(=N)N)NC(=O)[C@H](C(C)C)NC(=O)[C@H]([C@@H](C)O)NC6=O)C5=O)CC4)[C@@H](NC(=O)OC(C)(C)C)c4ccccc4)C[C@@](O)([C@@H](OC(=O)c4ccccc4)[C@H]21)C3(C)C (some centres unmarked) [compound 14] (H-C(X1)GFLG[Ahx]KTVRTSADE-NH2; lactam 7-15) | – | 10 | cytotoxicity compared to drug alone [5]: less cytotoxic as compared to drug alone |
